{"source": "patent US20190022198A1", "about": "“Individualized Immunomodulation Therapy for Neurodegenerative Disorders, CNS Injury and Age-Related Dementia” (Yeda Research and Development Co. Ltd., priority 2012, published 2019)", "key": {"5XFAD mice [1]": {"system": "5XFAD mice", "assay": "Cop 1 (GA) vaccination regimens in 5XFAD mice: FoxP3+ T cells in spleen (FACS) and CP (staining)", "assay_type": "in vivo, mouse", "description": "For intracellular staining of IFN-γ or IL-17, the cells were incubated with PMA (10 ng/ml; Sigma-Aldrich) and ionomycin (250 ng/ml; Sigma-Aldrich) for 6 h, and Brefeldin-A ([…]; Sigma-Aldrich) was added for the last 4 h. Intracellular labeling of cytokines was done with BD Cytofix/Cytoperm Plus Fixation/Permeabilization kit (cat. no. 555028) according to the manufacturer's protocol. Intracellular staining of FoxP3 was performed using the FoxP3 staining kit (eBioscience) according to the manufacturer's protocol. The following fluorochrome-labeled mAbs were used according to the manufacturers' protocols: FITC-conjugated anti-TCRβ, FITC-conjugated anti-CD44, PE-conjugated anti-CD4, PE-conjugated anti-IL-17A, APC-conjugated anti-IFN-γ, FITC-conjugated anti-CD45.2, Alexa-700-conjugated anti-CD45.2, Percp-Cy5.5-conjugated anti-TCRβ (all from BioLegend), and APC-conjugated anti-FoxP3 (eBioscience). Flow cytometry analysis was performed on each sample using a BD Biosciences LSRII flow cytometer, and the acquired data were analyzed using FlowJo software (Tree star). In each experiment, relevant negative control groups and single stained samples for each tissue were used to determine the populations of interest and to exclude others.\nFor whole mount staining of the choroid plexus, isolated tissues were fixed with 2.5% paraformaldehyde (PFA) for several hours, and subsequently transferred to PBS containing 0.05% sodium azide. Prior to staining, the dissected tissues were washed and blocked (20% horse serum, 0.3% Triton X-100, and PBS) for 1 h at room temperature with shaking. Whole mount staining with primary (in PBS containing 2% horse serum and 0.3% Triton X-100) and secondary antibodies (in PBS), was performed for 1h at room temperature, with shaking. Each step was followed by three washes in PBS. […] For morphological quantification, average cross-sectional area of epithelial cells was measured following Nissl staining. Cell borders (20-25 cells per picture) were marked and the area was quantified using Image-Pro Plus software in a blinded fashion. […]"}, "5XFAD mice [2]": {"system": "5XFAD mice", "assay": "Radial arm water maze (RAWM) in GA vaccinated 5XFAD mice", "assay_type": "in vivo, mouse", "description": "Mice were tested for two days on 6 radial arm water maze paradigm in a water pool, as described in Alamed et al., Nat Protoc. 2006, 1(4), 1671-1679. Briefly, mice received an injection of GA as indicated in the examples. On the first day, 15 trials were performed, in trials 1, 3, 5, 7, 9 and 11 the platform was visible, and in all other trials the platform was hidden. On the second day, 12 trials were performed, all of them with hidden platform. The time required to reach the platform and the number of errors (incorrect arm entries) in 1-min time period was recorded.\nTo test the effect of different regimens of administration of Cop 1, 5XFAD females were vaccinated subcutaneously (S.C.) with 100 μg Cop 1 dissolved in 200 μl PBS. Three different regimens were compared: 5XFAD+2GA were vaccinated twice, with the second injection given three days after the first; 5XFAD+5GA were vaccinated five times, twice in the first week and once a week for another three weeks, and 5XFAD+daily GA were vaccinated every day for 28 days (19B). One day after the last GA injection, mice were sacrificed and their spleens were analyzed by FACS and compared to WT and untreated 5XFAD littermates. […] Radial arm water maze (RAWM) was performed to 4 groups of 8 months old mice to test mental cognitive performance. […]"}, "[3]": {"details": "daily administration, subjects receiving daily injections; cited from earlier work"}}}
{"substance": "Glatiramer Acetate [GA]", "values": [{"measurement": "fold change of FoxP3+ T cells in spleen", "setting": "5XFAD mice [1]; 2GA: vaccinated twice, second injection three days after the first, 100 μg S.C., compared to untreated 5XFAD", "result": "significant decrease in the fold change of FoxP3^+ T cells"}, {"measurement": "incidence of FoxP3+CD3+ T cells in the CP", "setting": "5XFAD mice [1]; 5XFAD+5GA, compared to untreated 5XFAD littermates", "result": "decreased"}, {"measurement": "FoxP3+ T cells in the spleens", "setting": "5XFAD mice [1]; daily GA: every day for 28 days, 100 μg S.C.", "result": "promoted the enrichment of FoxP3^+ T cells"}, {"measurement": "RAWM performance (mental cognitive performance)", "setting": "5XFAD mice [2]; daily administration of GA for 28 days", "result": "performed as badly as the unvaccinated 5XFAD mice"}, {"measurement": "RAWM performance (mental cognitive performance)", "setting": "5XFAD mice [2]; weekly GA: twice in the first week and once a week for another 3 weeks, compared to unvaccinated 5XFAD", "result": "significantly improved"}, {"measurement": "level of Treg cells in the blood", "setting": "[3]", "result": "raises the level of Treg cells in the blood"}]}
